In patent US6818391B2, “Glutamate transporters” (The Regents of the University of California, priority 2000, dated 2004):
Entries after “also recorded” stand apart in the source; their conditions may differ.

Key:
BNPI (VGLUT1) [1] = molecular target: T1, BNPI (VGLUT1) (Rattus norvegicus, UniProt Q62634); assay: 3H-glutamate uptake by membranes from PC12 cells expressing BNPI; format: biochemical; settings: for inhibition of 3H-glutamate uptake by membranes expressing BNPI: 10 mM, uptake at 5 min
T1 construct: expressed in transfected cells; light membranes prepared from them
T1 sequence (Q62634 1-560): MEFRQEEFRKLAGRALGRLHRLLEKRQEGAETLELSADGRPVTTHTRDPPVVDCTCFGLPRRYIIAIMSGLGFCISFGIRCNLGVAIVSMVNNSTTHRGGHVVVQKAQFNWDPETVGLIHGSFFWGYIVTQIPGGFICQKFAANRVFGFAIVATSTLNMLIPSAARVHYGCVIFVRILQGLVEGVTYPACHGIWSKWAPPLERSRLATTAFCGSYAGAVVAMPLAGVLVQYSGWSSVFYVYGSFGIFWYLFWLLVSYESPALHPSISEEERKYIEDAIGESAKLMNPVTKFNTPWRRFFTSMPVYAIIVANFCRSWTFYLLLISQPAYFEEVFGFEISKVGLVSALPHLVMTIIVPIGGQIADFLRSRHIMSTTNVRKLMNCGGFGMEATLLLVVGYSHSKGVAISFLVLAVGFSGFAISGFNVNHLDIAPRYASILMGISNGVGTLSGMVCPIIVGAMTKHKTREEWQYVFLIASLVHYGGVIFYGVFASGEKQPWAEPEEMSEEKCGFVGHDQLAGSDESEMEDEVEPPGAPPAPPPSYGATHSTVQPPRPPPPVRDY
Text: Rather, the type I transporter NaPi-1 transports organic anions, including phenol red and penicillin G, with substantially higher apparent affinity than Pi (Busch et al. (1996) Proc. Natl. Acad. Sci., USA, 93: 5347). Human genetic studies have shown that mutations in another protein closely related to BNPI and NaPi-1 account for disorders of sialic acid storage (Verheijen et al. (1999) Nature Genet. 23: 462). In these conditions, sialic acid accumulates in lysosomes because of a defect in proton-driven export (Renlund et al. (1986) Science 232: 759; Mancini et al. (1989) J. Biol. Chem. 264: 15247; Tietze et al. (1989) J. Biol. Chem. 264: 15316; Mancini et al. (1992) Proc. Natl. Acad. Sci., USA, 89: 6609). […] To determine whether BNPI mediates the transport of glutamate into synaptic vesicles, we transfected the rat BNPI cDNA into rat pheochromocytoma PC12 cells, which lack detectable endogenous BNPI protein. The rat BNPI cDNA was stably expressed in PC12 cells, and immunofluorescence for BNPI was used to identify the most highly expressing cell clones. Membranes were prepared by homogenizing the washed cells in SH buffer [0.32 M sucrose and 10 mM Hepes-KOH (pH 7.4)] containing protease inhibitors and by pelleting the nuclei at 1000 g for 5 min and the heavier membranes at 27,000 g for 35 min. The supernatant containing lighter membranes was then pelleted at 210,000 g for 1 hour and resuspended in SH buffer with protease inhibitors at a final concentration of ˜10 μg protein/μl.
We then prepared a population of light membranes, including synaptic-like microvesicles, from the transfected and untransfected cells (McIntire et al. (1997) Nature 389: 870) and tested their ability to accumulate 3H-glutamate in the presence of 4 mM chloride and ATP, conditions that optimize glutamate accumulation by native synaptic vesicles (Maycox et al. (1988) J. Biol. Chem., 263: 15423; Carlson et al. […] J. Biol. Chem. 264: 7369). To initiate the transport reaction, we added 10 μl of membranes to 190 μl of SH buffer containing 4 mM KCl, 4 mM MgSO4, 4 mM ATP, and 50 μM 3H-glutamate, with other additions noted in the text and figure legends. The reaction mixture was incubated at 29° C. for varying times, and the uptake was terminated by rapid filtration, followed by immediate washes with 6 ml of cold 0.155 M potassium tartrate and 10 mM Hepes (pH 7.4). Background uptake was determined using membranes prepared from untransfected cells that were incubated for the same amount of time at the same temperature. Transport measurements were performed in duplicate with at least two different preparations of membranes. The Km was calculated by averaging the results of two separate determinations.

BNPI (VGLUT1) [2] = molecular target: T1, BNPI (VGLUT1); assay: acridine orange fluorescence quenching (vesicle acidification) of BNPI-expressing membranes; format: biochemical; settings: for acidification of BNPI-expressing versus control membranes: 90 mM chloride (KCl)
Protocol: Native synaptic vesicles acidify during glutamate uptake (Maycox et al. (1988) J. Biol. Chem., 263: 15423). Glutamate presumably serves as a counterion for protons and dissipates ΔΨ, enabling the vacuolar H+-ATPase to generate a larger ΔpH, but cotransport of H+ with glutamate remains an alternative possibility. To determine whether acidification also accompanies glutamate transport by BNPI, we used the quenching of acridine orange fluorescence to measure vesicle pH. Membranes (200 μg of protein) were diluted into 2 ml of 0.3 M sucrose and 10 mM tris-Mops (pH 7.4) containing 4 mM MgSO4 and 5 μM acridine orange and incubated at 37° C. with continuous stirring. Fluorescence was monitored with a Hitachi F4500 spectrofluorimeter at an excitation wavelength of 492 nm and emission of 530 nm. Separate measurements were made with at least three different membrane preparations for wild-type and transfected cells; representative tracings are shown in FIG. 5.

Compound	inhibition of 3H-glutamate uptake by membranes expressing BNPI (BNPI (VGLUT1) [1])	inhibition of 3H-glutamate uptake by membranes expressing BNPI (BNPI (VGLUT1) [1]; listed as L-glutamate)	Km (BNPI (VGLUT1) [1]; initial rate at 1 min, Lineweaver-Burke, untransfected background subtracted, read-out: Km of glutamate transport by BNPI)	acidification (lumenal pH) of membranes expressing BNPI (BNPI (VGLUT1) [2]; 10 mM glutamate, with ATP and 4 mM KCl)	effect on rate of chloride-dependent acidification of BNPI membranes (BNPI (VGLUT1) [2]; 10 mM, KCl 20, 50, 140 mM)	effect on acidification of BNPI-expressing membranes by chloride (BNPI (VGLUT1) [2]; 10 mM, listed as Glutamate)	effect on acidification of BNPI-expressing membranes by chloride (BNPI (VGLUT1) [2]; 10 mM, listed as glutamate)	3H-glutamate uptake by BNPI at non-optimal chloride (BNPI (VGLUT1) [1]; 0 and 25 mM chloride)	acidification of BNPI-expressing versus control membranes (BNPI (VGLUT1) [2])	acidification of BNPI-expressing versus control membranes (BNPI (VGLUT1) [2]; listed as KCl)
N[C@@H](CCC(=O)O)C(=O)O [L-Glutamate]	markedly inhibits	inhibited the uptake	~2000 µM	reduced the lumenal pH; also recorded: acidifies membranes expressing BNPI	reduces the rate of acidification	blocks this chloride conductance; also recorded: reduces the acidification	decreased the acidification produced by chloride			
Cl [chloride]								much less activity detected	produces more acidification	considerably greater
